The MIC is the smallest concentration in the dilution series that meets the test's criterion for growth inhibition.

The values below come from PMC7284870, “Antimicrobial Peptides from Rat-Tailed Maggots of the Drone Fly Eristalis tenax Show Potent Activity against Multidrug-Resistant Gram-Negative Bacteria” (Microorganisms, 2020).

The test system of experiment [1] is Morganella morganii clinical isolates (4). Nature of the experiment: MIC, clinical isolates. Type of experiment: cell-based. Here is the method: The strains that were used in this study (Table 2 and Table S1) were cultivated at 37 °C in cation-adjusted Mueller–Hinton broth (CAMB) in Erlenmeyer flasks, or on the same medium with agar in Petri dishes. Exceptionally, Mycobacterium smegmatis was cultivated at 37 °C in brain heart infusion (BHI) medium that was supplemented with 1% Tween-80 in Erlenmeyer flasks, or on the same medium lacking detergent but with agar in Petri dishes. Strains listed with Robert Koch Institute (RKI) strain numbers are clinical isolates from the RKI strain collection originating from hospitalized patients in Germany. The remaining strains originated from the Sanofi strain collection and they were originally purchased from the American Type Culture Collection or the German Collection of Microorganisms and Cell Cultures. Meropenem/colistin-resistant strains were maintained, as described above, with the appropriate antibiotic added at levels below the minimal inhibitory concentration (MIC).
The MIC values were determined in 384-well microtiter plates with an assay volume of 20 µL. Immediately before each assay, the cultures of test organisms (bacteria grown for 18 h, Candida albicans and M. smegmatis grown for 48 h) were diluted with the appropriate medium to a density of 1 × 10^6 cells/mL (C. albicans), 1 × 10^5 cells/mL (M. smegmatis) or 5 × 10^5 cells per mL (other species). […] We transferred 2-µL aliquots from this dilution series to new 384-well microtiter plates while using a CyBio-Well 384-channel automated pipettor (Analytic Jena, Jena, Germany) and added 18 µL of the diluted suspension of each test species using a Viafill reagent dispenser (Integra), thus reducing the final peptide concentration 10-fold to the range 1024–0.03125 µg/mL. […] The growth of M. smegmatis was measured using the BacTiter-Glo luminescence test system (Promega, Madison, WI, USA). The growth of the other species was determined by visual inspection of the microtiter plate and turbidimetry based on the optical density at 600 nm (OD600). The MIC was defined as the peptide concentration at which no bacterial growth was observed. We supplemented the test medium with either 150 mM NaCl or 1.25 mM CaCl2 to represent monovalent and divalent cations to simulate physiological conditions.

A further experiment deals with A. baumannii ATCC19606. Put plainly: Checkerboard assay EtDip with colistin. Type of experiment: cell-based, Acinetobacter baumannii. Particulars: CAMB, + 150 mM NaCl, + 1.25 mM CaCl2; FICindex ≤0.5 = synergy. The procedure: The interactions between pairs of compounds were analyzed using checkerboard assays in a 384-well microtiter plate with an assay volume of 20 µL. Immediately before the test runs, the bacterial cultures were diluted in CAMB to a density of 5 × 10^5 cells/mL. The two compounds for combinatorial testing were arrayed as 10-fold concentrated serial dilutions with respect to the final concentration, vertically for one compound and horizontally for the other, in the same 384-well microplate. Subsequently, we transferred 2-µL aliquots to new 384-well microtiter plates, and growth inhibition in each well was determined, as described for the MIC values above. Fractional inhibitory concentration (FIC) and FICindex values for each combination were calculated using the following formulae, where a
FICindex ≤0.5 indicates synergy and a FICindex >4 indicates antagonism.
FIC for compound A = MIC of compound A in combination/MIC of compound A
FIC for compound B = MIC of compound B in combination/MIC of compound B

A value given as a limit tells only on which side of the number the result lay.

`C[C@@H](O)[C@H]1C(=O)N2C(C(=O)O)=C(S[C@@H]3CN[C@H](C(=O)N(C)C)C3)[C@H](C)[C@H]12` [MEM, meropenem]: the MIC in experiment [1] (Table S1, RKI 81/15) is given as no more than 0.5 µg/mL; in experiment [1] (Table S1, RKI 93/15) it was no more than 0.5 µg/mL; in experiment [1] (Table S1, RKI 599/16), greater than 64 µg/mL; in experiment [1] (Table S1, RKI 659/13) it was no more than 0.5 µg/mL.

Regarding “QFNMQGGGSPRQGFDVNANARFPIWQSQNARNSVHGTASYAQHLGGPYGNSRPNFGGGLQFT [EtDip, diptericin-like peptide of Eristalis tenax]”, in the experiment on A. baumannii ATCC19606, the “interaction with colistin (FICindex)” value was “Synergistic interactions”.
